According to article PMC9738062, “Selectively Halogenated Flavonolignans—Preparation and Antibacterial Activity” (International Journal of Molecular Sciences, 2022):

Experiments:
[1] = test system: Vibrio campbellii BAA 1118 (AI-1); test: microbe, parasite or virus in culture; type: cell-based; details: for EC50: Vibrio campbellii, BAA1118, 16 h, read-out: EC50 (concentration that halved the communication); for SI (selectivity index): ratio IC50 (viability) / EC50 (communication), BAA 1118
From the text: (§1) Commercially available strains of Vibrio campbellii were used to evaluate the ability of flavonoids and their derivatives to inhibit bacterial quorum sensing. V. campbellii uses two types of autoinducing molecules for its communication—N-acyl-homoserine lactones (Autoinducer I, AI-1, strain BAA 1118) and furanosyl borate diester (Autoinducer II, AI-2, strain BAA 1119). AI-1-based communication is mainly used by Gram-negative bacteria, while AI-2-based communication is found in both Gram-negative and Gram-positive bacteria. The mutant strains of V. campbellii BA1118 and BA1119 respond only to AI-1 or AI-2, respectively, and the response to the respective AI concentration is measured as luminescence. The higher the AI concentration, the higher the luminescence signal. The ability to inhibit the communication was expressed as the selectivity index (SI), calculated as the ratio between the concentration that halved the viability (IC50) and the concentration that halved the communication (EC50) of the respective V. campbellii strains. […] The antimicrobial activity of quorum-sensing inhibitors is undesirable because it creates a selection pressure and can lead to the development of resistance.
(§2) The inhibition of bacterial extracellular communication was measured using Vibrio campbellii strains BAA-1118 and BAA-1119. The experiment was performed according to the methods of Szemerédi et al.. Briefly, 5 × 10^5 CFU/mL (colony-forming units per milliliter) were seeded in an Autoinducer Bioassay medium (NaCl 17.5 g/L, MgSO4 12.3 g/L, Casamino acids 2 g/L, 10 mL of 1 M potassium phosphate pH 7.0, 10 mL of 0.1 M L-arginine, and 10 mL of glycerol in 970 mL of deionized water) in a 96-well plate. Immediately, the tested compounds were added at the final concentration of 0.2–200 µM and luminescence was recorded for 16 h by a SpectraMax i3x microplate reader set at 30 °C, an integration time of 10,000 ms, and shaking for 60 s before measurement. […] The selectivity index was calculated as the […]. The EC50 and IC50 were calculated using GraphPad Prism software version 5.00 for Windows with a nonlinear regression curve fit.

[2] = test system: Vibrio campbellii BAA 1119 (AI-2); test: microbe, parasite or virus in culture; type: cell-based; details: for EC50: Vibrio campbellii, BAA1119, 16 h, read-out: EC50 (concentration that halved the communication); for SI (selectivity index): ratio IC50 (viability) / EC50 (communication), BAA 1119
From the text: as §1, §2

[3] = test system: Vibrio campbellii BAA 1118 (AI-1); test: Viability of the quorum-sensing reporter culture (resazurin assay), AI-1 strain; type: cell-based; details: BAA1118, V. campbellii BAA 1118, resazurin assay, read-out: IC50 (concentration that halved the viability)
From the text: as §1, §2

[4] = test system: Vibrio campbellii BAA 1119 (AI-2); test: Viability of the quorum-sensing reporter culture (resazurin assay), AI-2 strain; type: cell-based; details: BAA1119, V. campbellii BAA 1119, resazurin assay, read-out: IC50 (concentration that halved the viability)
From the text: as §1, §2

[5] = Ferric reducing antioxidant power (FRAP); details: Fe2+ equivalents
Method: (§3) To further elucidate how halogenation affects other properties of the flavonoids studied, their 2,2′-azino-bis-(3-ethylbenzothiazoline-6-sulfonic acid) cation (ABTS) and 1,1-diphenyl-2-picrylhydrazyl (DPPH) radical scavenging, the Folin–Ciocalteu reagent (FCR) reducing, the ferric-reducing antioxidant power (FRAP), and the anti-lipoperoxidation activities were evaluated by in vitro methods (Supplementary Information Tables S1 and S2).
(§4) The antiradical activity was evaluated by the ability to scavenge ABTS and DPPH radicals. Reducing capacity was assessed by the ability to reduce the Folin–Ciocalteu reagent (FCR) and ferric ions (FRAP). The ability to inhibit lipid peroxidation of pooled male rat microsomal liver membranes induced by tert-butyl hydroperoxide was also evaluated and the results were expressed as IC50 values.

[6] = test system: doxorubicin-resistant human ovarian carcinoma (HOC/DOX); test: Cytotoxicity (resazurin assay, 72 h); type: cell-based; details: for IC50: Homo sapiens, 72 h, resazurin assay; for SI (selectivity index): ratio IC50 for HDF / IC50 for HOC/DOX
Method: (§5) The cytotoxicity of flavonoids and their halogenated derivatives was determined as their ability to decrease the viability of human dermal fibroblasts (HDF) and doxorubicin-resistant human ovarian carcinomas (HOC/DOX). Both cell lines were cultivated in Dulbecco’s Modified Eagle’s Medium supplemented with fetal bovine serum (FBS, 10% v/v) and 1 × antibiotic antimycotic solution and incubated at 37 °C in the atmosphere of 5% CO2. The experiment was performed according to a previously published method. Briefly, 1 × 10^5 cells/mL were seeded into a 96-well plate (100 µL/well). After 24 h, flavonoids and their derivatives were administered at the concentration range of 31.25–500 µM. After 72 h, the viability was determined by resazurin assay (0.03 mg/mL of resazurin in PBS), where the fluorescence was measured after 2 h of incubation by the SpectraMax i3x microplate reader at a wavelength of 560/590 nm (excitation/emission). The concentration inhibiting half of the population (IC50) was determined using nonlinear regression in GraphPad Prism software. The selectivity index was calculated as the ratio between the IC50 for HDF (control, non-cancerous cells) and the IC50 for HOC/DOX (cancer cells).

[7] = test system: human dermal fibroblasts (HDF); test: Cytotoxicity (resazurin assay, 72 h); type: cell-based; details: Fibroblast
Method: as §5

[8] = test system: lipopolysaccharide-stimulated macrophages (RAW 264.7); test: Inhibition of nitric oxide production (Griess reagent); type: cell-based, murine; details: Mus musculus, RAW264.7; LPS 100 ng/mL, 24 h; highest tested concentration 100 µM; read-out: NO Production IC50
Method: The anti-inflammatory activity of the tested flavonolignans was determined as the ability to reduce nitric oxide production by murine macrophages (RAW 264.7) stimulated by bacterial lipopolysaccharides, as previously described. […] For the experiment, 1 × 10^6 cells/mL was seeded into the 96-well plate (100 µL/well). […] After 24 h, the medium was mixed with Griess reagent (0.04 g/mL), prepared freshly in deionized water at the ratio of 1:1. The absorbance was measured after 15 min at 540 nm by the SpectraMax i3x microplate reader. Cell viability was determined by resazurin assay.

[9] = test system: multidrug-resistant P. aeruginosa; test: Sensitization of antibiotic-resistant bacteria (compound plus breakpoint antibiotic concentration); type: cell-based, Pseudomonas aeruginosa; details: flavonoid 40 µM, 24 h; for Effect on viability in combination with colistin: colistin 2 mg/L; for Effect on viability in combination with imipenem: imipenem 4 mg/L; for Effect on viability in combination with imipenem: key: -: no effect (100% viability) was observed up to the highest flavonolignan concentration tested (>40 µM); reversion of resistance: the compound reversed the resistant phenotype to a sensitive one
Method: (§6) Clinically relevant antibiotics were selected for sensitization testing according to the European Committee on Antimicrobial Susceptibility Testing (EUCAST). Neither colistin and imipenem at breakpoint concentrations (according to EUCAST, […] and […]) affected the growth of the multidrug-resistant clinical strain of P. aeruginosa. Similarly, neither chloramphenicol and gentamicin at breakpoint concentrations ([…], respectively) affected the multidrug-resistant clinical strain of S. aureus. Flavonoids and their derivatives (1–40 µM) were used in combination therapy, along with the breakpoint concentration of antibiotics. After co-incubation, the minimum inhibitory concentration of flavonoids inhibiting the visible growth of bacteria was determined (Table 2).
(§7) Clinical isolates of P. aeruginosa and S. aureus were obtained from the General University Hospital in Prague (Prague, Czech Republic). P. aeruginosa was resistant to ciprofloxacin, oxacillin, ticarcillin, colistin, gentamicin, and imipenem. S. aureus was resistant to ciprofloxacin, gentamicin, erythromycin, chloramphenicol, clindamycin, oxacillin, cefotaxime, and vancomycin. Bacteria were cultivated in Mueller–Hinton broth (MH broth, Merck). The susceptibility of the bacteria was evaluated by the minimum inhibitory concentrations (MIC). The MIC of derivatives in the presence of the antibiotic cut-off concentration was determined according to ISO 20776-1: 2020. The antibiotic cut-off concentration was chosen according to the European Committee on Antimicrobial Susceptibility Testing (EUCAST, Clinical breakpoints—bacteria (ver. 11.0), 1 January 2021). The 40 µM concentration of the derivatives was chosen as the highest concentration for the tests. Cell viability was determined by measuring absorbance (A590 nm) after 24 h incubation at 37 °C, 150 rpm.

[10] = test system: multidrug-resistant S. aureus; test: as above; type: cell-based, Staphylococcus aureus; details: flavonoid 40 µM, 24 h; for Effect on viability in combination with chloramphenicol: chloramphenicol 8 mg/L
Method: as §6, §7

[11] = DPPH radical scavenging; details: 1,1-diphenyl-2-picrylhydrazyl radical scavenging
Method: as §3, §4

[12] = test system: pooled male rat microsomal liver membranes; test: Inhibition of lipid peroxidation induced by tert-butyl hydroperoxide; type: biochemical; details: male rat microsomes, read-out: ILP IC50
Method: as §4

[13] = ABTS cation radical scavenging; details: vitamin C equivalent antioxidant capacity
Method: as §3, §4

[14] = Folin-Ciocalteu reagent reduction; details: gallic acid equivalents
Method: as §3, §4

In the case of O=c1[nH]cc(F)c(=O)[nH]1 [5-Fluorouracil, reference compound], the EC50 [1] is reported as 0.00039 µM, the “SI (selectivity index)” value [1] is reported as 1.73 ± 0.05 and the EC50 [2] is reported as 0.44 nM. For the same molecule, the “SI (selectivity index)” value [2] was 7.8 ± 0.5, the IC50 [3] was 0.00068 µM and the IC50 [4] was 3.41 nM.
With [Fe+2] [Fe2+, reference compound] the “FRAP [Fe2+eq]” value [5] was 1.01 Fe2+eq.
For COc1ccc2c(c1)c(CC(=O)O)c(C)n2C(=O)c1ccc(Cl)cc1 [Indomethacin, reference compound], the IC50 [6] was 17.1 ± 0.6 µM, the “SI (selectivity index)” value [6] was 12.94 and the IC50 [7] was 222 µM. It also gave an IC50 [8] of 51.3 ± 0.6 µM.
With CC1(C)[C@H](C(=O)O)N2C(=O)C[C@H]2S1(=O)=O [Sulbactam, reference compound] the “Effect on viability in combination with colistin” value [9] was “-”, the “Effect on viability in combination with imipenem” value [9] was “-” and the “Effect on viability in combination with chloramphenicol” value [10] was “reversion of resistance”. The “Effect on viability in combination with gentamicin” value ([10]; gentamicin 1 mg/L) was “-”.
Work on Cc1c(C)c2c(c(C)c1O)CCC(C)(C(=O)O)O2 (stereo not shown) [Trolox, reference compound] yielded an IC50 [11] of 3.5 µM and an IC50 [12] of 32.7 ± 2.4 µM.
In the case of COc1cc([C@H]2Oc3cc([C@H]4Oc5c(Br)c(O)cc(O)c5C(=O)[C@@H]4O)ccc3O[C@@H]2CO)ccc1O [compound 19, 8-bromosilybin A], the EC50 [1] is reported as 33.9 ± 1.8 µM, the “SI (selectivity index)” value [1] is reported as 3.4 ± 0.3 and the EC50 [2] is reported as 4600 ± 300 nM. The “SI (selectivity index)” value [2] was ≥43.1 ± 2.6, the IC50 [3] was 115 ± 5.4 µM and the IC50 [4] was > 200000 nM. The “Effect on viability in combination with colistin” value [9] was “-”, the “Effect on viability in combination with imipenem” value [9] was “-” and the “Effect on viability in combination with chloramphenicol” value [10] was “-”. For the same molecule, the “ABTS [CEAC]” value [13] was 0.68 ± 0.03 CEAC, the “FCR [GAE]” value [14] was 1.01 ± 0.02 GAE and the “FRAP [Fe2+eq]” value [5] was 0.057 ± 0.002 Fe2+eq. For the same molecule, the IC50 [11] was > 500 µM, the IC50 [6] was 202 µM and the “SI (selectivity index)” value [6] was 0.38. For the same molecule, the IC50 [7] was 77.4 ± 1.1 µM and the IC50 [8] was 36.4 ± 1.7 µM.
